Laboratory results published in paper PMC3723855, “R31C GNRH1 Mutation and Congenital Hypogonadotropic Hypogonadism” (PLoS ONE, 2013).
Entries after “also recorded” stand apart in the source; their conditions may differ. Read-outs that look alike come from different tables or passages of the source.

What was measured:
LbetaT2 cells = assay: Intracellular calcium mobilization (Fura2) in LbetaT2 cells; type: cell-based, murine; conditions: for calcium mobilisation: 10 nM, LbetaT2 cells
Procedure: Figure 5 Effect of treatments on intracellular calcium mobilization. Cells were loaded with Fura 2-AM. At the time of the experiment 100 µM EGTA was added 30 sec before addition of 300 µM of CaCl2 (Ca^2+) to the medium as indicated, and cells were then stimulated with 10 nM of wild type (WT), mutant (R31C) or equimolar combination (10 nM WT +10 nM R31C) or vehicle for 3 min. In the upper panel, representative curves of single cell recording. Each experiment mean was analysed using One-way ANOVA followed by Tukey's Multiple comparison test. In the lower panels, histograms show the means ± SEM (n = 4) of the response to ligands as calcium peak and as area under the curve (AUC). […] Representative of at least three independent experiments, *p<0.05.
LbetaT2 cells were kept in serum free medium overnight and then loaded with 2 µM Fura2-AM for 45 min at 37°C. The experiment was conducted in HEPES buffer (in mM; 116 NaCl, 5.6 KCl, 1.2 MgCl2, 5 NaHCO3, 1 NaH2PO4, 20 HEPES ph 7.4) in presence of extracellular Ca^2+ (EGTA 100 µM + CaCl2 300 µM). Single images of fluorescent emission at 510 nm under excitation at 340 and 380 nm were taken every 5 Sec. Changes in [Ca^2+]i in response to GnRHs were monitored using the Fura2 340/380 fluorescence ratio. Basal ratio was arbitrarily considered as 1. Ca^2+ responses over basal level were given either as maximal rise of [Ca^2+]i or as area under the curve (for 2 min after agonist addition).

lhb (LbetaT2 cells) = assay: lhb transcription (RT-qPCR) in LbetaT2 cells; type: cell-based, mouse; conditions: for lhb transcription versus WT GnRH: 10 nM R31C; for lhb transcript levels: 10 nM, n = 7 in duplicates, p<0.01 for WT, not significant for R31C
Procedure: Figure 7 Effects of treatments on lhb transcription and LH secretion. […] After five hours treatment cells were lysed for RNA extraction (Trizol®). Mouse lhb levels were analyzed by quantitative real time RT-qPCR. Values are expressed as individual ratios on 18S and represented as fold induction on vehicle as means ± SEM, **p<0.01. This experience was conducted n = 7 times in duplicates. (B) LH concentrations from LbetaT2 cells culture media. Cells were starved overnight in serum-free DMEM and incubated with 10 nM WT, 10 nM R31C, 10 nM WT +10 nM R31C, or vehicle for 5 hours. LH levels were measured by a combined rat/mouse RIA. Values are expressed as individual values and as means ± SEM, *p<0.05, ***p<0.001. The experiment was conducted four times and each sample was assayed in duplicates.
LbetaT2 cells were grown at 10^6/well in 6-well plates and starved in serum-free DMEM 18 h before tests. […]
Lhb (murine LH beta subunit) transcript was quantified by real-time RT-PCR, using an ABI Step One Sequence Detector (Applied Biosystem, Foster City, CA) as previously described.

ERK1/2 (LbetaT2 cells) = assay: ERK1/2 phosphorylation Western blot in LbetaT2 cells; type: cell-based, murine
Procedure: Figure 4 ERK1/2 phosphorylation by Western blot. (A) LbetaT2 cells were starved overnight in serum-free DMEM and then treated by 10 nM WT, 10 nM R31C, 10 nM WT +10 nM R31C peptides or vehicle for 0, 5, 10 and 30 minutes. Representative of four experiments. […] Lysates were analyzed by Western Blotting using phospho-ERK1/2 antibodies (Cell Signaling®, open arrow) and mouse monoclonal anti alpha-tubulin (Sigma Aldrich®, St. Louis, MO, close arrow). Similar results on ERK intensity and kinetics were obtained using transiently transfected HEK293T cells.
LbetaT2 cells were starved 18 h in serum-free DMEM before treatments, then exposed to 10 nM of WT, 10 nM of R31C, the combination of 10 nM of each peptide or vehicle. Cells were harvested at 0, 5, 10, 15 and 30 minutes after treatment. Western blotting analyses were performed as previously described.

[1] = Peptide stability in solution, LC-MS/MS
Procedure: LC-MS/MS was performed with Quattro-LCZ triple quadrupole mass spectrometer equipped with the orthogonal electrospray source (Micromass, Manchester, UK) to analyze peptides stability in solution. Peptides solutions (water and cell culture medium) were incubated 24-h at room temperature for these stability studies.
Peptides were measured in aqueous solution at pH 7 and starved overnight at 37°C.

human GnRH receptor = assay: SRE-coupled luciferase assay in HEK293T cells co-transfected with human GnRH receptor; type: cell-based; conditions: for EC50: human GnRH receptor
Procedure: Figure 3 SRE-coupled luciferase assay. (A) HEK293T cells were exposed to graded concentrations of wild type (WT) GnRH, R31C and equimolar concentrations of WT + R31C during five hours. Luciferase activity arbitrary units by luminometry (a.u.) have been shown as ratio on beta-galactosidase activity by optical density used as transfection efficiency internal control. This experience was conducted eight times. (B) Representation of individual values of EC-50 (calculated with Arcsin “P” root transformation) from n = 8 dose-response experiments.
luc2P/SRE/Hygro plasmid (Promega, Madison, WI) was used to test luciferase production in response to MAP kinase activation as a reporter gene system. HEK293T cells (1.2×10^4 cells/well) were seeded 72 h before testing in high-glucose Dulbecco's minimal essential medium (DMEM, Invitrogen, Cergy Pontoise, France) containing 2 mM glutamine, 100 IU/mL penicillin, […] streptomycin, and 10% heat-inactivated fetal calf serum at 37°C in 96-well plates. Twenty-four hours before testing, cells were co-transfected in serum free OptiMEM, using Lipofectamine 2000 (Invitrogen, Cergy Pontoise, France) with the plasmids for human GnRH receptor, luc2P/SRE/Hygro and pMIR-REPORT™ beta-galactosidase vector (Applied Biosystems, Foster City, CA). […] After 5 h-incubation cells were harvested and assayed for luciferase activities as previously described, using a luminometer (Victor, Perkin Elmer, Waltham, MA). To standardize for transfection efficiency, the relative light units were normalized by the galactosidase activity at optical density. EC-50 and Emax values were calculated using Graphpad Prism (GraphPad Software Inc).

[2] = 10 nM R31C, 3 min, EGTA 100 µM + CaCl2 300 µM, n = 4, p<0.05
[3] = R31C 10^−10 M to 10^−6 M in combination with WT GnRH at 10^−9 M
[4] = aqueous solution at pH 7, overnight at 37°C, mass spectrometry-coupled electrospray (Fig. S1)

CC(C)C[C@H](NC(=O)CNC(=O)[C@H](Cc1ccc(O)cc1)NC(=O)[C@H](CO)NC(=O)[C@H](Cc1c[nH]c2ccccc12)NC(=O)[C@H](Cc1c[nH]cn1)NC(=O)[C@@H]1CCC(=O)N1)C(=O)N[C@@H](CS)C(=O)N1CCC[C@H]1C(=O)NCC(N)=O [R31C GnRH]
calcium area under the curve (AUC) versus WT (LbetaT2 cells; [2]): significantly reduced compared to WT; also recorded: significantly lower than WT
calcium peak versus WT (LbetaT2 cells; [2]): significantly reduced compared to WT; also recorded: significantly lower than WT
calcium mobilisation (LbetaT2 cells): very low activity
calcium mobilisation (LbetaT2 cells; listed as R31C peptide): weaker responses
impact of added R31C GnRH on Ca2+ signaling with WT GnRH (LbetaT2 cells; [3]): failed to have any impact
lhb transcription versus WT GnRH (lhb (LbetaT2 cells); 5 hours): very low activity
lhb transcription versus WT GnRH (lhb (LbetaT2 cells); 5 hours, listed as R31C peptide): weaker responses
influence of R31C GnRH on stimulation of lhb transcription by WT GnRH (lhb (LbetaT2 cells); 10 nM WT + 10 nM R31C, 5 hours): unable to influence the stimulation of lhb transcription
lhb transcript levels (lhb (LbetaT2 cells); 5 hours): did not significantly increase these levels over baseline
impact of added R31C GnRH on lhb transcription with WT GnRH (lhb (LbetaT2 cells); [3]): failed to have any impact
ERK1/2 phosphorylation versus WT GnRH (ERK1/2 (LbetaT2 cells); 10 nM, LbetaT2 cells, four experiments): very low activity
ERK1/2 phosphorylation versus WT GnRH (ERK1/2 (LbetaT2 cells); 10 nM, LbetaT2 cells, four experiments, listed as R31C peptide): weaker responses
effect of increasing R31C dose on ERK1/2 phosphorylation by WT GnRH (ERK1/2 (LbetaT2 cells); R31C from 10 nM to 300 nM with 10 nM WT GnRH, 5 minutes exposure): did not reduce ERK1/2 phosphorylation
dimerization ([1]; 24 h, room temperature, water and culture medium, LC-MS/MS): No dimerization
formation of R31C dimers [1, 4]: absent
formation of smaller fragments [1, 4]: negligible
stability over 24-hours ([1]; culture medium, room temperature, 24 h, LC-MS/MS): stable
stability over 24-hours ([1]; water, room temperature, 24 h, LC-MS/MS): stable
maximal stimulation / agonism, SRE-luciferase (human GnRH receptor; HEK293T, 5 h, R31C compared with WT): full agonist; also recorded: able to elicit the same maximal stimulation
EC50 (human GnRH receptor; HEK293T, 5 h, n = 8 dose-response experiments, Arcsin "P" root transformation, spread not defined, p<0.0001, read-out: EC-50, SRE-luciferase (Fig. 3B)): 0.313 ± 0.13 µM
impact of added R31C GnRH on SRE-luciferase with WT GnRH (human GnRH receptor; [3]): failed to have any impact
SRE-luciferase activity / potency (human GnRH receptor; R31C GnRH versus WT): very low activity
reduction of R31C agonist versus WT, SRE-luciferase (human GnRH receptor; R31C versus WT, dose-response curves): ~100 fold

CC(C)C[C@H](NC(=O)CNC(=O)[C@H](Cc1ccc(O)cc1)NC(=O)[C@H](CO)NC(=O)[C@H](Cc1c[nH]c2ccccc12)NC(=O)[C@H](Cc1c[nH]cn1)NC(=O)[C@@H]1CCC(=O)N1)C(=O)N[C@@H](CCCNC(=N)N)C(=O)N1CCC[C@H]1C(=O)NCC(N)=O [WT GnRH, reference compound]
calcium mobilisation (LbetaT2 cells): rapid and transient calcium mobilisation
lhb transcript levels (lhb (LbetaT2 cells); 5 hours): significantly increased lhb transcript levels
time of maximal ERK1/2 phosphorylation (ERK1/2 (LbetaT2 cells); 10 nM, LbetaT2 cells, 0-30 minutes, four experiments): 5 min
formation of smaller fragments [1, 4]: absent
EC50 (human GnRH receptor; HEK293T, 5 h, p<0.0001 WT vs R31C, read-out: EC-50, SRE-luciferase): 0.004 µM
